Values of other authors as cited in patent US20230330126A1, “MODIFIED ADENOSINE NUCLEOSIDE FOR USE IN THE TREATMENT OF VIRAL INFECTIONS” (priority 2020, published 2023).

Columns and labels:
[1] = animal and human studies

Row | SMILES | efficacy compared with theophylline [1] | tolerability profile compared with theophylline [1] | half-life [h]
1 | Cn1c(=O)c2c(ncn2CC2OCCO2)n(C)c1=O [doxofylline, Doxofylline] | comparable efficacy to that of theophylline | better tolerability profile, with significantly fewer side effects | –
2 | O=c1[nH]cnc2c1ncn2[C@@H]1O[C@H](CO)[C@@H](O)[C@H]1O [inosine, Inosine] | – | – | 15
